Measurements reported in patent publication US12655116B2, “Substituted isophthalic acid diamides” (Bayer Aktiengesellschaft, priority 2020, dated 2026).

What was measured:
[1] = tested on: DIGSA; assay: Post-emergence herbicidal action against DIGSA; type: in vivo, Digitaria sanguinalis
Method in brief: (§1)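 Foliar application at one-leaf stage of formulated test compounds, aqueous spray at 600–800 l/ha with 0.2% wetting agent. Greenhouse, optimal conditions, ~3 weeks; damage scored visually in % relative to untreated plants.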

[2] = tested on: VERPE; assay: Post-emergence herbicidal action against VERPE; type: in vivo, Veronica persica
Method in brief: as §1

[3] = tested on: AMARE; assay: Post-emergence herbicidal action against AMARE; type: in vivo, Amaranthus retroflexus; conditions: 20 g/ha, visual assessment about 3 weeks after treatment, 100% = plants have died, 0% = like control plants
Method in brief: as §1

[4] = tested on: ECHCG; assay: Pre-emergence herbicidal action against ECHCG; type: in vivo, Echinochloa crus-galli
Method in brief: (§2)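 Greenhouse pots of sandy loam held seeds covered with soil, onto which the compound was applied before emergence. An aqueous suspension or emulsion of WP or EC was used at 600 to 800 l/ha with 0.2% wetting agent. Percent damage was judged visually at 3 weeks.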

[5] = tested on: LOLRI; assay: Pre-emergence herbicidal action against LOLRI; type: in vivo, Lolium rigidum; conditions: 80 g/ha
Method in brief: as §2

[6] = tested on: AVEFA; assay: Pre-emergence herbicidal action against AVEFA; type: in vivo, Avena fatua; conditions: 80 g/ha, pre-emergence
Method in brief: as §2

[7] = tested on: SETVI; assay: Post-emergence herbicidal action against SETVI; type: in vivo, Setaria viridis
Method in brief: as §1

[8] = tested on: ABUTH; assay: Post-emergence herbicidal action against ABUTH; type: in vivo, Abutilon theophrasti; conditions: visual assessment about 3 weeks after treatment vs untreated controls
Method in brief: as §1

[9] = tested on: ALOMY; assay: Pre-emergence herbicidal action against ALOMY; type: in vivo, Alopecurus myosuroides; conditions: pre-emergence
Method in brief: as §2

[10] = tested on: ABUTH; assay: Pre-emergence herbicidal action against ABUTH; type: in vivo, Abutilon theophrasti
Method in brief: as §2

[11] = tested on: ALOMY; assay: Post-emergence herbicidal action against ALOMY; type: in vivo, Alopecurus myosuroides; conditions: visual assessment about 3 weeks after treatment vs untreated controls
Method in brief: as §1

[12] = tested on: VIOTR; assay: Pre-emergence herbicidal action against VIOTR; type: in vivo, Viola tricolor
Method in brief: as §2

[13] = tested on: MATIN; assay: Pre-emergence herbicidal action against MATIN; type: in vivo, Matricaria inodora
Method in brief: as §2

[14] = tested on: MATIN; assay: Post-emergence herbicidal action against MATIN; type: in vivo, Matricaria inodora
Method in brief: as §1

[15] = tested on: DIGSA; assay: Pre-emergence herbicidal action against DIGSA; type: in vivo, Digitaria sanguinalis
Method in brief: as §2

[16] = tested on: PHBPU; assay: Post-emergence herbicidal action against PHBPU; type: in vivo, Pharbitis purpurea
Method in brief: as §1

[17] = tested on: SETVI; assay: Pre-emergence herbicidal action against SETVI; type: in vivo, Setaria viridis
Method in brief: as §2

[18] = tested on: VIOTR; assay: Post-emergence herbicidal action against VIOTR; type: in vivo, Viola tricolor; conditions: Viola tricolor, 504 h, 20 g/ha
Method in brief: as §1

[19] = tested on: POLCO; assay: Pre-emergence herbicidal action against POLCO; type: in vivo, Polygonum convolvulus
Method in brief: as §2

[20] = tested on: VERPE; assay: Pre-emergence herbicidal action against VERPE; type: in vivo, Veronica persica
Method in brief: as §2

[21] = tested on: AMARE; assay: Pre-emergence herbicidal action against AMARE; type: in vivo, Amaranthus retroflexus
Method in brief: as §2

[22] = tested on: PHBPU; assay: Pre-emergence herbicidal action against PHBPU; type: in vivo, Pharbitis purpurea; conditions: dosage 80 g/ha
Method in brief: as §2

[23] = tested on: ECHCG; assay: Post-emergence herbicidal action against ECHCG; type: in vivo, Echinochloa crus-galli; conditions: dosage 20 g/ha
Method in brief: as §1

[24] = Setaria viridis, 504 h, dosage 20 g/ha
[25] = Tripleurospermum inodorum, 504 h, dosage 20 g/ha
[26] = 80 g/ha, scored visually after 3 weeks vs untreated controls (100% = plants have died, 0% = like control plants)

CCNC(=O)c1c(C(F)(F)C(F)(F)F)ccc(C(=O)Nc2nnnn2C)c1Cl [Example 1-166]
90%: pest or weed control at 5 g/ha ([1]; Digitaria sanguinalis, 504 h, 5 g/ha) | pest or weed control at 20 g/ha ([1]; Digitaria sanguinalis, 504 h, 20 g/ha) | pest or weed control at 20 g/ha ([2]; Veronica persica, 504 h, 20 g/ha) | pest or weed control at 20 g/ha ([3]; Amaranthus retroflexus, 504 h) | pest or weed control at 20 g/ha ([4]; Echinochloa crus-galli, 504 h, 20 g/ha) | pest or weed control at 5 g/ha ([7]; Setaria viridis, 504 h, dosage 5 g/ha) | pest or weed control at 20 g/ha [7, 24] | pest or weed control at 5 g/ha ([8]; Abutilon theophrasti, 504 h, dosage 5 g/ha) | pest or weed control at 20 g/ha ([8]; Abutilon theophrasti, 504 h, dosage 20 g/ha) | pest or weed control at 20 g/ha ([9]; Alopecurus myosuroides, 504 h, 20 g/ha, scored visually after 3 weeks, 100% = plants have died, 0% = like control plants) | pest or weed control at 20 g/ha ([10]; Abutilon theophrasti, 504 h, dosage 20 g/ha, scored visually after 3 weeks vs untreated controls, 100% = plants have died, 0% = like control plants, read-out: Pre-emergence action against ABUTH (herbicidal activity in percent)) | pest or weed control at 20 g/ha ([11]; Alopecurus myosuroides, 504 h, dosage 20 g/ha) | pest or weed control at 80 g/ha ([15]; Digitaria sanguinalis, 504 h, dosage 80 g/ha) | pest or weed control at 20 g/ha ([16]; Ipomoea purpurea, 504 h, dosage 20 g/ha) | pest or weed control at 20 g/ha ([23]; Echinochloa crus-galli, 504 h)
100%: pest or weed control at 80 g/ha ([4]; Echinochloa crus-galli, 504 h, 80 g/ha) | pest or weed control at 80 g/ha ([6]; Avena fatua, 504 h) | pest or weed control at 80 g/ha ([9]; Alopecurus myosuroides, 504 h, 80 g/ha, scored visually after 3 weeks vs untreated controls (100% = plants have died, 0% = like control plants)) | pest or weed control at 80 g/ha ([10]; Abutilon theophrasti, 504 h, 80 g/ha, scored visually after 3 weeks vs untreated controls (100% = plants have died, 0% = like control plants)) | pest or weed control at 20 g/ha ([12]; Viola tricolor, 504 h, dosage 20 g/ha) | pest or weed control at 80 g/ha ([12]; Viola tricolor, 504 h, dosage 80 g/ha) | pest or weed control at 20 g/ha [13, 25] | pest or weed control at 80 g/ha ([13]; Tripleurospermum inodorum, 504 h, dosage 80 g/ha) | pest or weed control at 80 g/ha ([17]; Setaria viridis, 504 h, dosage 80 g/ha) | pest or weed control at 20 g/ha ([19]; Fallopia convolvulus, 504 h, dosage 20 g/ha) | pest or weed control at 80 g/ha ([19]; Fallopia convolvulus, 504 h, dosage 80 g/ha) | pest or weed control at 80 g/ha ([20]; Veronica persica, 504 h, dosage 80 g/ha) | pest or weed control at 20 g/ha ([21]; Amaranthus retroflexus, 504 h, 20 g/ha, scored visually after 3 weeks vs untreated controls, 100% = plants have died, 0% = like control plants) | pest or weed control at 80 g/ha ([21]; Amaranthus retroflexus, 504 h, 80 g/ha, scored visually after 3 weeks vs untreated controls, 100% = plants have died, 0% = like control plants)
80%: pest or weed control at 5 g/ha ([2]; Veronica persica, 504 h, 5 g/ha) | pest or weed control at 80 g/ha ([5]; Lolium rigidum, 504 h) | pest or weed control at 5 g/ha ([11]; Alopecurus myosuroides, 504 h, dosage 5 g/ha) | pest or weed control at 5 g/ha ([14]; Tripleurospermum inodorum, 504 h, dosage 5 g/ha) | pest or weed control at 20 g/ha [14, 25] | pest or weed control at 5 g/ha ([16]; Ipomoea purpurea, 504 h, dosage 5 g/ha) | pest or weed control at 20 g/ha [17, 24] | pest or weed control at 20 g/ha [18] | pest or weed control at 20 g/ha ([20]; Veronica persica, 504 h, dosage 20 g/ha) | pest or weed control at 80 g/ha ([22]; Ipomoea purpurea, 504 h)

CCn1nnnc1NC(=O)c1ccc(C(F)F)c(C(=O)NC(C)C2CC2)c1C (stereo not shown) [Example 2-339]
80%: Post-emergence action against DIGSA in % ([1]; 5 g/ha) | Post-emergence action against VERPE in % ([2]; 20 g/ha) | Pre-emergence action against LOLRI in % [5] | Pre-emergence action against AVEFA in % [6] | Post-emergence action against ABUTH in % ([8]; dosage 5 g/ha) | Post-emergence action against ABUTH in % ([8]; dosage 20 g/ha) | Post-emergence action against ALOMY in % ([11]; dosage 20 g/ha) | Post-emergence action against MATIN in % ([14]; dosage 20 g/ha) | Pre-emergence action against POLCO in % ([19]; dosage 80 g/ha) | Pre-emergence action against VERPE in % ([20]; dosage 20 g/ha) | Pre-emergence action against PHBPU in % [22]
100%: Pre-emergence action against ECHCG in % ([4]; 80 g/ha) | Post-emergence action against SETVI in % ([7]; dosage 20 g/ha) | Pre-emergence action against ABUTH (herbicidal activity) [10, 26] | Pre-emergence action against ABUTH (herbicidal activity in percent) ([10]; dosage 20 g/ha, scored visually after 3 weeks vs untreated controls, 100% = plants have died, 0% = like control plants) | Pre-emergence action against VIOTR in % ([12]; dosage 20 g/ha) | Pre-emergence action against VIOTR in % ([12]; dosage 80 g/ha) | Pre-emergence action against MATIN in % ([13]; dosage 20 g/ha) | Pre-emergence action against MATIN in % ([13]; dosage 80 g/ha) | Pre-emergence action against DIGSA in % ([15]; dosage 20 g/ha) | Pre-emergence action against DIGSA in % ([15]; dosage 80 g/ha) | Pre-emergence action against SETVI in % ([17]; dosage 80 g/ha) | Pre-emergence action against VERPE in % ([20]; dosage 80 g/ha) | Pre-emergence action against AMARE in % ([21]; 20 g/ha, scored visually after 3 weeks vs untreated controls, 100% = plants have died, 0% = like control plants) | Pre-emergence action against AMARE in % [21, 26]
90%: Post-emergence action against DIGSA ([1]; 20 g/ha) | Post-emergence action at 20 g/ha against AMARE in % [3] | Pre-emergence action against ALOMY (herbicidal activity) [9, 26] | Post-emergence action against PHBPU in % ([16]; dosage 5 g/ha) | Post-emergence action against PHBPU in % ([16]; dosage 20 g/ha) | Post-emergence action against ECHCG in % [23]
